Among the data in paper doi:10.1101/2021.05.28.446239v2 (biorxiv, 2021) are EC50 values, retold here.

Experiment [1] relates to truncated lungfish MR (MR-CDE). The experiment is described as follows: luciferase reporter transactivation. The experiment is classed as cell-based, Protopterus dolloi. The following applies: agonist; HEK293, TAT3-luc promoter.
Experiment [2] deals with full-length lungfish MR. The experiment is described as follows: luciferase reporter transactivation. The class given is cell-based, Protopterus dolloi. As to conditions: agonist; HEK293, TAT3-luc promoter.

Take `C[C@]12CC[C@H]3[C@@H](CCC4=CC(=O)CC[C@@]43C)[C@@H]1CC[C@@H]2C(=O)CO` [11-deoxycorticosterone]: the values for the EC50 in experiment [1] and in experiment [2] were 0.13 nM and 0.04 nM, respectively.
For `C[C@]12CCC(=O)C=C1CC[C@@H]1[C@@H]2CC[C@@]2(C)[C@H]1CC[C@]2(O)C(=O)CO` [11-deoxycortisol] the same measures were 0.27 nM and 0.17 nM.
On to `C[C@]12CCC(=O)C=C1CC[C@@H]1[C@@H]2[C@@H](O)C[C@]2(C=O)[C@@H](C(=O)CO)CC[C@@H]12` [aldosterone], for which the EC50 in experiment [1] is 0.24 nM; in experiment [2], 0.04 nM.
For the molecule `C[C@]12C[C@H](O)[C@H]3[C@@H](CCC4=CC(=O)CC[C@@]43C)[C@@H]1CC[C@@H]2C(=O)CO` [corticosterone], the results for the EC50 in experiment [1] and in experiment [2] were 85.5 nM and 23.1 nM, respectively.
On to `C[C@]12CCC(=O)C=C1CC[C@@H]1[C@@H]2[C@@H](O)C[C@@]2(C)[C@H]1CC[C@]2(O)C(=O)CO` [cortisol], for which the concentration giving a half-maximal response (EC50) in experiment [1] came out at 86.7 nM; in experiment [2], 66.1 nM.
Regarding `C[C@@H]1C[C@H]2[C@@H]3CCC4=CC(=O)C=C[C@]4(C)[C@@]3(F)[C@@H](O)C[C@]2(C)[C@@]1(O)C(=O)CO` [dexamethasone], the EC50 in experiment [1] stood at 7.7 nM; in experiment [2], 4.7 nM.
`CC(=O)[C@H]1CC[C@H]2[C@@H]3CCC4=CC(=O)CC[C@]4(C)[C@H]3CC[C@]12C` [progesterone]: the EC50 in experiment [1] turned out to be 0.044 nM; in experiment [2] it was 0.03 nM.
With `C[C@]12C=CC(=O)C=C1CC[C@H]1[C@@H]3C[C@@H](O)[C@](O)(C(=O)CO)[C@@]3(C)C[C@H](O)[C@@]12F` [triamcinolone], the figures for the EC50 in experiment [1] and in experiment [2] were 2.4 nM and 1.3 nM, respectively.
